# Measured values published in patent US10987389B2, “Anti-tumor traditional Chinese medicine microbial fermentation preparation and a preparation method and application thereof” (priority 2014, dated 2021).
# “And” between values parts separate entries of the source, which are not always exact repeats. Identical values can stand only once.
# Experiments:
# Format in all cases: in vivo
# [1] = system: mouse Ehrlich Ascites Cancer (EAC) solid tumor; assay: Effects of oral administration of the compound powder on mouse Ehrlich Ascites Cancer (EAC) solid tumor; conditions: Dosage 0.2 ml/10 g × 9
# Protocol: (§1) A suspension of 10% was prepared from the traditional Chinese medicine compound powder provided by the present invention and then stored in a refrigerator. The suspension would be shaken up before use. Tumor strain: Heps, S180 and ESC were all commercially available products. Animal: Kunming mice provided by the animal laboratories of Shenyang Pharmaceutical University and China Pharmaceutical University. Method: referring to the following literatures: Literature 1: chief editor Xu Shuyun. Methodology of Pharmacological Experiment, Beijing: People's Medical Publishing House 1982, 1115-1125. Literature 2: China Academic Conference on Tumor Pharmacology and Chemotherapy: In-vivo Efficacy Test Procedures of Anticancer Drugs, internal data. 1989. 3. Effects of the Traditional Chinese Medicine Compound Powder on ESC Solid Tumor […]
# [2] = system: mouse transplantable Heps solid tumor; assay: Effects of oral administration of the compound powder on mouse Heps solid tumor; conditions: for Inhibition rate / Tumor weight (g) (X ± SD): mouse Heps solid tumor; for Weight (g) Beginning: body weight at beginning; for Weight (g) Beginning / Weight (g) End: Heps; for Weight (g) End: body weight at end
# Protocol: as §1, with “1989. 1.” for “1989. 3.”, “on Heps” for “on ESC”
# [3] = system: mouse transplantable S180 solid tumor; assay: Effects of oral administration of the compound powder on mouse S180 solid tumor; conditions: Dosage 0.2 ml/10 g × 9
# Protocol: as §1, with “1989. 2.” for “1989. 3.”, “on S180” for “on ESC”
compound,measurement,setting,value
"O=c1[nH]cc(F)c(=O)[nH]1 [0.15% 5-Fu, 5-Fu]",Inhibition rate,[1]; mouse EAC solid tumor,64.85% and 66.85% and 65.36%
same,Tumor weight (g) (X ± SD),[1]; mouse EAC solid tumor,1.23 ± 0.43 g and 1.31 ± 0.65 g and 1.33 ± 0.63 g
same,Weight (g) Beginning,"[1]; body weight at beginning, EAC",20.90 g and 21.45 g and 20.85 g
same,Weight (g) End,"[1]; body weight at end, EAC",26.80 g and 22.20 g and 26.90 g
same,Inhibition rate,[2]; Dosage 0.1 ml/10 g × 8,65.75% and 56.62%
same,Tumor weight (g) (X ± SD),[2]; Dosage 0.1 ml/10 g × 8,1.12 ± 0.85 g and 0.59 ± 0.27 g
same,Inhibition rate,[2]; Dosage 0.1 ml/10 g × 9,58.55%
same,Tumor weight (g) (X ± SD),[2]; Dosage 0.1 ml/10 g × 9,1.05 ± 0.54 g
same,Weight (g) Beginning,[2]; Dosage 0.1 ml/10 g × 8,21.30 g and 18.95 g
same,Weight (g) Beginning,[2]; Dosage 0.1 ml/10 g × 9,21.00 g
same,Weight (g) End,[2]; Dosage 0.1 ml/10 g × 8,24.80 g and 20.22 g
same,Weight (g) End,[2]; Dosage 0.1 ml/10 g × 9,25.86 g
same,Inhibition rate,[3]; mouse S180 solid tumor,61.80% and 60.53% and 42.62%
same,Tumor weight (g) (X ± SD),[3]; mouse S180 solid tumor,1.36 ± 0.44 g and 1.33 ± 0.31 g and 1.87 ± 1.03 g
same,Weight (g) Beginning,"[3]; body weight at beginning, S180",21.80 g and 21.30 g and 20.78 g
same,Weight (g) End,"[3]; body weight at end, S180",24.70 g and 23.60 g and 20.00 g
